# Biological target: SMARCA2 (Homo sapiens, UniProt P51531)
# Experiment: MSD SMARCA2 degradation in NCI-H1299 cell line (24 h)
# Assay type: cell-based
# Parameters: HC: NCI-H1299 cells treated with DMSO; host or cells: NCI-H1299
# Conditions: NCI-H1299, NCI-H1299 cells
# Description: Example 32. MSD SMARCA2 Degradation in […] Cell Line
# Cell Culture: Cells were cultured in exponential growth phase.
# Compound Preparation and Treatment: NCI-H1299 cells were seeded into the 96-well plate at 4.0*10^4 cells per 100 ul per well. Incubate the plate in the incubator overnight. The next day, compounds were diluted to designed stock concentration by TECAN, then perform a 3 fold, 9-point dilution via transferring 15 uL compound into 30 μL DMSO using Apricot. 200 nL diluted compound from compound source plate were transferred into the 96-intermediate plate as designated by using Echo550, followed with 100 ul culture medium to make the 2× compound solution. Cell plate were changed with 80 ul of fresh culture medium and 80 ul of 2× compound solution was added into the well to achieve the final designed concentration. Cell plate was then shaken at 720 rpm for 5 min and incubated for 24 hours in the incubator.
# Sample Preparation: Media was aspirated from the cultures and the plate was washed with PBS twice. 60 ul of pre-chilled PIPA lysis buffer (Boston BioProducts BP-115D) with protease inhibitor were directly added into the well to lyze the cells for 20 minutes at 4° C. Cell lysates were collected.
# MSD Procedure: The MSD plate was coated with 40 ul cell lysate and incubated at 4° C. overnight. The next day, the MSD coated bare plate was washed 3 times with 150 ul 1×TBST per well, blocked with 150 ul of blocking buffer per well, and shaken for 1 hour at RT, 600 rpm. Blocking buffer was 3% Blocker A in TBST. MSD plate was then washed 3 times with 150 ul 1×TBST per well and Primary Detection antibody (Rabbit anti-SMARCA2/BRM antibody, 100 μg/ml, ab223735) was added to a final [conc.]: 0.3 ug/ml, 25 ul/well and shaken for 1 hour at RT, 600 rpm. Antibody was prepared in Antibody Detection buffer (1% Blocker A in 1×TBST). The MSD plate was then washed 3 times with 150 ul 1×TBST per well. Secondary Detection antibody (SULFO-TAG anti-species antibody) was then added to a final [conc.]: 1 ug/ml, 25 ul/well, and shaken for 1 hour at RT, 600 rpm. Antibodies were prepared in Antibody Detection buffer (1% Blocker A in 1×TBST). MSD plate was washed 3 times with 150 ul 1×TBST per well and 2×MSD reading buffer was added, 150 ul per well, and diluted from 4× with water. MSD instrument was then read.
# Data Analysis: The percentage of relative level of SMARCA2 level was calculated following equation below.
# LC: A2780, SMARCA2 negative cells. HC: NCI-H1299 cells treated with DMSO.
# The letter codes for the percentage of SMARCA2 degradation after 24 hours (Dmax %) include: A (>90% degradation), B (>70-90 degradation), C (50-70 degradation), and D (<50% degradation).
# Chain of SMARCA2 (P51531 whole entry): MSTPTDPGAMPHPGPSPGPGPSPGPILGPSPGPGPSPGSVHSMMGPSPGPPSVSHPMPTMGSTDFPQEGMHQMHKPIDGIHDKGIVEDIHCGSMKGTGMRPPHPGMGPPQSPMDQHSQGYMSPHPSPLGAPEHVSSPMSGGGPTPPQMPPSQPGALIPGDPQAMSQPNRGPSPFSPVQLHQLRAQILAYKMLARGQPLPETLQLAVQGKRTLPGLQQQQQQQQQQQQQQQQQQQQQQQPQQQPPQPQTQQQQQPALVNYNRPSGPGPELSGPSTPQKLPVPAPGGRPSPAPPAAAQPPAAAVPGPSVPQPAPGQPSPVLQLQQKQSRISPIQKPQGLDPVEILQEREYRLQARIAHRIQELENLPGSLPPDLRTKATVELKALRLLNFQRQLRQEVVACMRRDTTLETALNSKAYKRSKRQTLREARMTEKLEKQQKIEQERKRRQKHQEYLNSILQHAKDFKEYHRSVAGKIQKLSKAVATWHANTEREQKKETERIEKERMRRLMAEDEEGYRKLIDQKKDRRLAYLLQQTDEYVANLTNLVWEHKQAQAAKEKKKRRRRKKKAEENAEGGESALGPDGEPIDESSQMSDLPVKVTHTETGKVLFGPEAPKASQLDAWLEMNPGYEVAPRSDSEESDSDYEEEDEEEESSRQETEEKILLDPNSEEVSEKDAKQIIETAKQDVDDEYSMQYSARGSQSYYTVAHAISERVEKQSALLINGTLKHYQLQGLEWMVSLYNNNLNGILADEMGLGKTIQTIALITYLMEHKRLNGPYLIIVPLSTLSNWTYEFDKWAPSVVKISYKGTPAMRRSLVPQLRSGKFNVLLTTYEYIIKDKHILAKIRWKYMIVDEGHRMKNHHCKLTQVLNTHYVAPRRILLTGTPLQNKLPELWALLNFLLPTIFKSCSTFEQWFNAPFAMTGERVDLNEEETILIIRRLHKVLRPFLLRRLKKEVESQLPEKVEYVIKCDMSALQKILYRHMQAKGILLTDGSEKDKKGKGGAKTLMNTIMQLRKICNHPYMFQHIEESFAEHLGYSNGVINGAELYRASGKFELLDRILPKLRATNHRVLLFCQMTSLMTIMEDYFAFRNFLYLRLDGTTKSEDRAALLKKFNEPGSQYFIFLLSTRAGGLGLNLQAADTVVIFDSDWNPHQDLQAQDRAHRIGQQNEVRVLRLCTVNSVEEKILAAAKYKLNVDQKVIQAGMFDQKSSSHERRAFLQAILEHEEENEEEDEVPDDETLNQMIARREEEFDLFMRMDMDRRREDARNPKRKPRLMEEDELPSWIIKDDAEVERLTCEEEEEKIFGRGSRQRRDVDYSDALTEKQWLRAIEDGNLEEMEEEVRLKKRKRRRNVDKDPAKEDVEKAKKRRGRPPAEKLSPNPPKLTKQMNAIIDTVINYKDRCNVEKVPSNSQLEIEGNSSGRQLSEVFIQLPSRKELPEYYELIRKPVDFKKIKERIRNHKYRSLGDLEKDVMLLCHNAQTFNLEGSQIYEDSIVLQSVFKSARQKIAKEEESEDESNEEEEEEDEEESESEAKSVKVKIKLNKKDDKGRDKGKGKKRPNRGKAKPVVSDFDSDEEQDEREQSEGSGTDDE
row,SMILES,Dmax
1,Cn1c(=O)n(C2CCC(=O)NC2=O)c2cccc(CCCNCc3cn(Cc4cccc(N5C[C@H]6C[C@@H]5CN6/C=C/C(=O)c5ccccc5O)n4)nn3)c21 (some centres unmarked) [I-28],< 50%
2,O=C1CCC(N2C(=O)c3cccc(OCCCCc4cn(Cc5cccc(N6C[C@H]7C[C@@H]6CN7/C=C/C(=O)c6ccccc6O)n5)nn4)c3C2=O)C(=O)N1 (some centres unmarked) [I-37],> 90%

# Same assay, conditions: NCI-H1299 cells, read-out: SMARCA2 MSD H1299 degradation 24 h: External Abs-DC50
row,SMILES,DC50
1,O=C(CCCCCCCCOc1ccc(N2C[C@H]3C[C@@H]2CN3/C=C/C(=O)c2ccccc2O)nc1)NCCOCCOCCOCCNc1cccc2c1C(=O)N(C1CCC(=O)NC1=O)C2=O (some centres unmarked) [I-1],> 1 µM
2,O=C(CCCCCCCCOc1ccc(N2C[C@H]3C[C@@H]2CN3/C=C/C(=O)c2ccccc2O)nc1)NCCOCCOCCOCCOCCNc1cccc2c1C(=O)N(C1CCC(=O)NC1=O)C2=O (some centres unmarked) [I-2],> 1 µM
3,O=C(CCCCCCCCOc1ccc(N2C[C@H]3C[C@@H]2CN3/C=C/C(=O)c2ccccc2O)nc1)NCCOCCOCCOCCOCCOCCNc1cccc2c1C(=O)N(C1CCC(=O)NC1=O)C2=O (some centres unmarked) [I-3],> 1 µM
4,Cn1c(=O)n(C2CCC(=O)NC2=O)c2ccc(CCCOCCOCCOCCNC(=O)CCCCCCCCOc3ccc(N4C[C@H]5C[C@@H]4CN5/C=C/C(=O)c4ccccc4O)nc3)cc21 (some centres unmarked) [I-4],> 1 µM
5,Cn1c(=O)n(C2CCC(=O)NC2=O)c2ccc(CCCOCCOCCOCCOCCNC(=O)CCCCCCCCOc3ccc(N4C[C@H]5C[C@@H]4CN5/C=C/C(=O)c4ccccc4O)nc3)cc21 (some centres unmarked) [I-5],> 1 µM
6,Cn1c(=O)n(C2CCC(=O)NC2=O)c2ccc(CCCOCCOCCOCCOCCOCCNC(=O)CCCCCCCCOc3ccc(N4C[C@H]5C[C@@H]4CN5/C=C/C(=O)c4ccccc4O)nc3)cc21 (some centres unmarked) [I-6],> 1 µM
7,O=C(CCCCCCCCOc1ccc(N2C[C@H]3C[C@@H]2CN3/C=C/C(=O)c2ccccc2O)nc1)NCCOCCOCCNc1cccc2c1C(=O)N(C1CCC(=O)NC1=O)C2=O (some centres unmarked) [I-7],> 1 µM
8,Cn1c(=O)n(C2CCC(=O)NC2=O)c2ccc(CCCOCCOCCNC(=O)CCCCCCCCOc3ccc(N4C[C@H]5C[C@@H]4CN5/C=C/C(=O)c4ccccc4O)nc3)cc21 (some centres unmarked) [I-8],> 1 µM
9,CC(c1ccc(C(=O)NCCOCCOCCOCCNc2cccc3c2C(=O)N(C2CCC(=O)NC2=O)C3=O)cc1)n1cc(-c2cc(-c3ccccc3O)nnc2N)cn1 (centres unmarked) [I-9],> 1 µM
10,CC(c1ccc(C(=O)NCCOCCOCCOCCOCCNc2cccc3c2C(=O)N(C2CCC(=O)NC2=O)C3=O)cc1)n1cc(-c2cc(-c3ccccc3O)nnc2N)cn1 (centres unmarked) [I-10],> 1 µM
11,CC(c1ccc(C(=O)NCCOCCOCCOCCOCCOCCNc2cccc3c2C(=O)N(C2CCC(=O)NC2=O)C3=O)cc1)n1cc(-c2cc(-c3ccccc3O)nnc2N)cn1 (centres unmarked) [I-11],> 1 µM
12,CC(c1ccc(C(=O)NCCOCCOCCOCCCc2ccc3c(c2)n(C)c(=O)n3C2CCC(=O)NC2=O)cc1)n1cc(-c2cc(-c3ccccc3O)nnc2N)cn1 (centres unmarked) [I-12],> 1 µM
13,CC(c1ccc(C(=O)NCCOCCOCCOCCOCCCc2ccc3c(c2)n(C)c(=O)n3C2CCC(=O)NC2=O)cc1)n1cc(-c2cc(-c3ccccc3O)nnc2N)cn1 (centres unmarked) [I-13],> 1 µM
14,CC(c1ccc(C(=O)NCCOCCOCCOCCOCCOCCCc2ccc3c(c2)n(C)c(=O)n3C2CCC(=O)NC2=O)cc1)n1cc(-c2cc(-c3ccccc3O)nnc2N)cn1 (centres unmarked) [I-14],> 1 µM
15,CC(c1ccc(C(=O)NCCOCCOCCNc2cccc3c2C(=O)N(C2CCC(=O)NC2=O)C3=O)cc1)n1cc(-c2cc(-c3ccccc3O)nnc2N)cn1 (centres unmarked) [I-15],> 1 µM
16,CC(c1ccc(C(=O)NCCOCCOCCCc2ccc3c(c2)n(C)c(=O)n3C2CCC(=O)NC2=O)cc1)n1cc(-c2cc(-c3ccccc3O)nnc2N)cn1 (centres unmarked) [I-16],> 1 µM
17,O=C(CCCCCCCCOc1ccnc(N2C[C@H]3C[C@@H]2CN3/C=C/C(=O)c2ccccc2O)c1)NCCOCCOCCOCCNc1cccc2c1C(=O)N(C1CCC(=O)NC1=O)C2=O (some centres unmarked) [I-17],> 1 µM
18,O=C(CCCCCCCCOc1ccnc(N2C[C@H]3C[C@@H]2CN3/C=C/C(=O)c2ccccc2O)c1)NCCOCCOCCOCCOCCNc1cccc2c1C(=O)N(C1CCC(=O)NC1=O)C2=O (some centres unmarked) [I-18],> 1 µM
19,O=C(CCCCCCCCOc1ccnc(N2C[C@H]3C[C@@H]2CN3/C=C/C(=O)c2ccccc2O)c1)NCCOCCOCCOCCOCCOCCNc1cccc2c1C(=O)N(C1CCC(=O)NC1=O)C2=O (some centres unmarked) [I-19],> 1 µM
20,Cn1c(=O)n(C2CCC(=O)NC2=O)c2ccc(CCCOCCOCCOCCNC(=O)CCCCCCCCOc3ccnc(N4C[C@H]5C[C@@H]4CN5/C=C/C(=O)c4ccccc4O)c3)cc21 (some centres unmarked) [I-20],> 1 µM

row,SMILES,DC50
1,Cn1c(=O)n(C2CCC(=O)NC2=O)c2ccc(CCCOCCOCCOCCOCCNC(=O)CCCCCCCCOc3ccnc(N4C[C@H]5C[C@@H]4CN5/C=C/C(=O)c4ccccc4O)c3)cc21 (some centres unmarked) [I-21],> 1 µM
2,Cn1c(=O)n(C2CCC(=O)NC2=O)c2ccc(CCCOCCOCCOCCOCCOCCNC(=O)CCCCCCCCOc3ccnc(N4C[C@H]5C[C@@H]4CN5/C=C/C(=O)c4ccccc4O)c3)cc21 (some centres unmarked) [I-22],> 1 µM
3,O=C(CCCCCCCCOc1ccnc(N2C[C@H]3C[C@@H]2CN3/C=C/C(=O)c2ccccc2O)c1)NCCOCCOCCNc1cccc2c1C(=O)N(C1CCC(=O)NC1=O)C2=O (some centres unmarked) [I-23],> 1 µM
4,Cn1c(=O)n(C2CCC(=O)NC2=O)c2ccc(CCCOCCOCCNC(=O)CCCCCCCCOc3ccnc(N4C[C@H]5C[C@@H]4CN5/C=C/C(=O)c4ccccc4O)c3)cc21 (some centres unmarked) [I-24],> 1 µM
5,Cn1c(=O)n(C2CCC(=O)NC2=O)c2ccc(CCCOCCOCCNC(=O)CCCOc3cccc(N4C[C@H]5C[C@@H]4CN5/C=C/C(=O)c4ccccc4O)n3)cc21 (some centres unmarked) [I-25],> 1 µM
6,Cn1c(=O)n(C2CCC(=O)NC2=O)c2ccc(CCCOCCOCCOCCNC(=O)CCCOc3cccc(N4C[C@H]5C[C@@H]4CN5/C=C/C(=O)c4ccccc4O)n3)cc21 (some centres unmarked) [I-26],> 1 µM
7,Cn1c(=O)n(C2CCC(=O)NC2=O)c2ccc(CNCc3cn(Cc4cccc(N5C[C@H]6C[C@@H]5CN6/C=C/C(=O)c5ccccc5O)n4)nn3)cc21 (some centres unmarked) [I-27],> 1 µM
8,Cn1c(=O)n(C2CCC(=O)NC2=O)c2cccc(CCCNCc3cn(Cc4cccc(N5C[C@H]6C[C@@H]5CN6/C=C/C(=O)c5ccccc5O)n4)nn3)c21 (some centres unmarked) [I-28],> 1 µM
9,Cn1c(=O)n(C2CCC(=O)NC2=O)c2ccc(CCCNCc3cn(Cc4cccc(N5C[C@H]6C[C@@H]5CN6/C=C/C(=O)c5ccccc5O)n4)nn3)cc21 (some centres unmarked) [I-29],> 1 µM
10,Cn1c(=O)n(C2CCC(=O)NC2=O)c2cccc(CCCOCCOc3cccc(N4C[C@H]5C[C@@H]4CN5/C=C/C(=O)c4ccccc4O)n3)c21 (some centres unmarked) [I-30],> 1 µM
11,"Cn1c(=O)n(C2CCC(=O)NC2=O)c2ccc(CCCOCCOc3cccc(N4C[C@H]5C[C@@H]4CN5/C=C/C(=O)c4ccccc4O)n3)cc21 (stereo partly drawn) [I-31, 3-[5-[3-[2-[[6-[(1R,4R)-5-[(E)-3-(2-hydroxyphenyl)-3-oxo-prop-1-enyl]-2,5-diazabicyclo[2.2.1]heptan-2-yl]-2-pyridyl]oxy]ethoxy]propyl]-3-methyl-2-oxo-benzimidazol-1-yl]piperidine-2,6-dione]",> 1 µM
12,Cn1c(=O)n(C2CCC(=O)NC2=O)c2cccc(CCCOCCOCCOc3cccc(N4C[C@H]5C[C@@H]4CN5/C=C/C(=O)c4ccccc4O)n3)c21 (some centres unmarked) [I-32],> 1 µM
13,Cn1c(=O)n(C2CCC(=O)NC2=O)c2ccc(CCCOCCOCCOc3cccc(N4C[C@H]5C[C@@H]4CN5/C=C/C(=O)c4ccccc4O)n3)cc21 (some centres unmarked) [I-33],> 1 µM
14,O=C1CCC(N2C(=O)c3cccc(OCc4cn(Cc5cccc(N6C[C@H]7C[C@@H]6CN7/C=C/C(=O)c6ccccc6O)n5)nn4)c3C2=O)C(=O)N1 (some centres unmarked) [I-34],> 1 µM
15,O=C1CCC(N2C(=O)c3cccc(OCCc4cn(Cc5cccc(N6C[C@H]7C[C@@H]6CN7/C=C/C(=O)c6ccccc6O)n5)nn4)c3C2=O)C(=O)N1 (some centres unmarked) [I-35],> 1 µM
16,"O=C1CCC(N2C(=O)c3cccc(OCCCc4cn(Cc5cccc(N6C[C@H]7C[C@@H]6CN7/C=C/C(=O)c6ccccc6O)n5)nn4)c3C2=O)C(=O)N1 (stereo partly drawn) [I-36, 2-(2,6-dioxo-3-piperidyl)-4-[3-[1-[[6-[(1R,4R)-5-[(E)-3-(2-hydroxyphenyl)-3-oxo-prop-1-enyl]-2,5-diazabicyclo[2.2.1]heptan-2-yl]-2-pyridyl]methyl]triazol-4-yl]propoxy]isoindoline-1,3-dione]",> 1 µM
17,O=C1CCC(N2C(=O)c3cccc(OCCCCc4cn(Cc5cccc(N6C[C@H]7C[C@@H]6CN7/C=C/C(=O)c6ccccc6O)n5)nn4)c3C2=O)C(=O)N1 (some centres unmarked) [I-37],0.501 to 1 µM
18,O=C1CCC(N2C(=O)c3cccc(NCCOCc4cn(Cc5cccc(N6C[C@H]7C[C@@H]6CN7/C=C/C(=O)c6ccccc6O)n5)nn4)c3C2=O)C(=O)N1 (some centres unmarked) [I-38],> 1 µM
19,O=C1CCC(N2C(=O)c3cccc(OCCOCCc4cn(Cc5cccc(N6C[C@H]7C[C@@H]6CN7/C=C/C(=O)c6ccccc6O)n5)nn4)c3C2=O)C(=O)N1 (some centres unmarked) [I-39],> 1 µM

# Source: patent publication US12624044B2, “SMARCA degraders and uses thereof” (Kymera Therapeutics, Inc., priority 2019, dated 2026)
